Assay results: patent publication US20050239844A1, “Composition fo preventing secretion of immunoglobulin e-dependent histamine releasing factor” (KYUNG-LIM LEE, priority 2002, published 2005)

Assays:
Format in all cases: in vivo
BALBc male mice [1] = assay: Ovalbumin-induced allergic rhinitis: symptom score; conditions: 7 days, sneezing and nose scratching counted for 15 minutes
Method: 3-week-old BALBc male mice weighing 15-25 g were divided into four groups each comprising 6 or 7 animals, and then bred in a specific pathogen-free (SPF) environment for 35 days. In order to induce allergic rhinitis, 10 μg of ovalbumin (grade V, Sigma Chemical Co., Phillipsberg, N.Y.) and 1 mg of aluminum hydroxide (Al(OH)3) gel were mixed with 0.3 ml phosphate buffered saline for at least 30 minutes to prepare an ovalbumin mixture. 0.1 ml of the mixture was injected into the abdominal cavity of the mice, and each at 5, 14 and 21 days later, injected once more into the abdominal cavity. At one week after the final injection into the abdominal cavity (28 days later), 30 μl phosphate buffered saline or a mixture of 100 μg ovalbumin with 30 μl phosphate buffered saline was administered into the nasal cavity using a micropipette. […] Then, in each mouse, the number of expression of characteristic symptoms of allergic rhinitis, i.e., the number of expression of symptoms, such as sneezing and the action of scratching the nose, was measured for 15 minutes after a given period, and their sum was recorded as a symptom score. The symptom score was recorded as the mean of scores measured by two observers, and scores having at least 30% difference between the two observers were excluded.

SD mice = assay: Anaphylaxis reaction caused by C48/80: mortality; conditions: pantoprazole 10 mg/kg tail vein 30 minutes before C48/80 10 mg/kg tail vein; survival for one hour
Method: SD mice weighing 200-220 g were divided into three groups consisting of a negative control group, a positive control group and a test group, each group consisting of eight animals.
30 minutes after this pretreatment, the negative control group was injected with a phosphate buffer saline through the tail vein, the positive control group and the test group were injected with 10 mg/kg of C48/80 through the tail vein. After the injection, the number of individuals died of anaphylaxis reaction caused by C48/80 was observed. The standard of death and survival was determined by whether or not the animals survive for one hour after C48/80 administration.

BALBc male mice [2] = assay: Ovalbumin-induced allergic rhinitis: eosinophil number in nasal mucosa (histology); conditions: under mucosa of anterior inferior turbinate, 400× magnification
Method: 3-week-old BALBc male mice weighing 15-25 g were divided into four groups each comprising 6 or 7 animals, and then bred in a specific pathogen-free (SPF) environment for 35 days. In order to induce allergic rhinitis, 10 μg of ovalbumin (grade V, Sigma Chemical Co., Phillipsberg, N.Y.) and 1 mg of aluminum hydroxide (Al(OH)3) gel were mixed with 0.3 ml phosphate buffered saline for at least 30 minutes to prepare an ovalbumin mixture. 0.1 ml of the mixture was injected into the abdominal cavity of the mice, and each at 5, 14 and 21 days later, injected once more into the abdominal cavity. At one week after the final injection into the abdominal cavity (28 days later), 30 μl phosphate buffered saline or a mixture of 100 μg ovalbumin with 30 μl phosphate buffered saline was administered into the nasal cavity using a micropipette. […] The administration of ovalalbumin into the nasal cavity and the pretreatment with the drugs before this administration were performed for 7 days, one time a day, and the next day after the administration for 7 days, the mice of all the groups was euthanized by inhalation with carbonic acid gas. […] The measured results were statistically analyzed by the Mann-Whitney U-test, using SPSS for Windows version 10 (SPSS Inc., Chicago), and were determined to be statistically significant at p<0.05.

COc1ccnc(C[S+]([O-])c2nc3ccc(OC(F)F)cc3[nH]2)c1OC (centres unmarked) [Inventive composition, pantoprazole]
Symptom score, Mean (BALBc male mice [1]; pantoprazole 10 mg/kg into abdominal cavity 30 minutes before nasal ovalbumin): 27.29 | Symptom score, Mean (BALBc male mice [1]; pantoprazole 100 mg/kg into abdominal cavity 30 minutes before nasal ovalbumin): 48.00 | Mortality (number of dead individuals/number of total individuals) (SD mice): 4/8 | eosinophil number (row printed as Symptom score), Mean (BALBc male mice [2]; pantoprazole 10 mg/kg): 5.57 | eosinophil number (row printed as Symptom score), Mean (BALBc male mice [2]; pantoprazole 100 mg/kg): 4.29
